Assay results taken from EPA's ToxRefDB 2.

Key:
[1] = system: mouse; conditions: Subchronic oral toxicity in rodents, b6c3f1, Feed, dose end: 13 week, group: systemic
[2] = system: rat; conditions: Subchronic oral toxicity in rodents, fischer, Feed, dose end: 13 week, group: systemic
[3] = system: rat; conditions: Carcinogenicity, fischer, Oral, Feed, dose end: 103 week, group: systemic
[4] = system: rat; conditions: Subchronic oral toxicity in rodents, fischer, Feed, dose end: 13 week, group: systemic; remark: listed apart in the source
[5] = system: mouse; conditions: Carcinogenicity; b6c3f1; Oral; Feed; dose end: 103 week; group: systemic; systemic / pathology gross / urinary bladder / stones + systemic / pathology microscopic / urinary bladder / hyperplasia + systemic / …
[6] = system: rat; conditions: Subchronic oral toxicity in rodents, fischer, Feed, dose end: 13 week, group: systemic, systemic / in life observation / body weight / body weight gain + systemic / pathology gross / urinary bladder / stones
[7] = system: rat; conditions: Prenatal developmental toxicity study, sprague dawley, Oral, Gavage/Intubation, dose end: 15 GD
[8] = system: rat; conditions: Carcinogenicity, fischer, Oral, Gavage/Intubation, dose end: 103 week, group: systemic
[9] = system: mouse; conditions: Subchronic oral toxicity in rodents, b6c3f1, Gavage/Intubation, dose end: 13 week, group: systemic
[10] = system: rat; conditions: Subchronic oral toxicity in rodents, fischer, Gavage/Intubation, dose end: 13 week, group: systemic
[11] = system: rat; conditions: Subchronic dermal toxicity, sprague dawley, Topical, dose end: 13 week, group: systemic, systemic / pathology microscopic / liver / inflammation + systemic / pathology microscopic / liver / necrosis + systemic / in life …
[12] = system: mouse; conditions: Sub-acute repeat dose toxicity; b6c3f1; Oral; Gavage/Intubation; dose end: 16 day; group: systemic; systemic / pathology gross / stomach / erosion + systemic / pathology gross / stomach / ulcer + systemic / pathology microscopic / stomach…
[13] = system: rat; conditions: Sub-acute repeat dose toxicity; fischer; Oral; Gavage/Intubation; dose end: 16 day; group: systemic; systemic / pathology microscopic / stomach / hyperkeratosis + systemic / pathology microscopic / stomach / hyperplasia + systemic / …
[14] = system: mouse; conditions: Carcinogenicity; b6c3f1; Oral; Gavage/Intubation; dose end: 103 week; group: systemic; systemic / pathology microscopic / stomach / acanthosis + systemic / pathology microscopic / stomach / hyperkeratosis + systemic / pathology…
[15] = system: rat; conditions: Subchronic oral toxicity in rodents, sprague dawley, Feed, dose end: 13 week, group: systemic
[16] = system: dog; conditions: Subchronic oral toxicity in nonrodent, beagle, Capsule, dose end: 93 day, group: systemic
[17] = system: dog; conditions: Chronic toxicity, beagle, Oral, Capsule, dose end: 52 week, group: systemic
[18] = system: rat; conditions: Combined chronic toxicity/carcinogenicity, sprague dawley, Oral, Feed, dose end: 104 week, group: systemic
[19] = system: mouse; conditions: Carcinogenicity, other, Oral, Feed, dose end: 104 week, group: systemic
[20] = systemic / in life observation / body weight / body weight gain
[21] = systemic / in life observation / body weight / body weight gain + systemic / pathology gross / urinary bladder / stones + systemic / …
[22] = systemic / in life observation / body weight / body weight gain + systemic / in life observation / food consumption / food consumption + …
[23] = systemic / pathology gross / urinary bladder / stones
[24] = systemic / in life observation / body weight / body weight
[25] = systemic / pathology gross / urinary bladder / stones + systemic / in life observation / body weight / body weight gain + systemic / …
[26] = group: developmental, systemic / in life observation / body weight / fetal weight
[27] = group: maternal, systemic / in life observation / body weight / body weight gain + systemic / in life observation / food consumption / food consumption + …
[28] = systemic / pathology microscopic / stomach / acanthosis + systemic / pathology microscopic / stomach / hyperplasia + systemic / pathology …
[29] = systemic / organ weight / kidney / relative to body weight + systemic / organ weight / liver / relative to body weight
[30] = systemic / organ weight / kidney / relative to body weight + systemic / organ weight / liver / relative to body weight + systemic / …
[31] = systemic / pathology microscopic / stomach / acanthosis + systemic / pathology microscopic / stomach / hyperkeratosis
[32] = systemic / pathology microscopic / stomach / acanthosis + systemic / pathology microscopic / stomach / hyperkeratosis + systemic / in life …
[33] = systemic / in life observation / body weight / body weight + systemic / in life observation / clinical signs / distended abdomens + systemic…
[34] = systemic / organ weight / kidney / relative to body weight
[35] = systemic / clinical chemistry / albumin / albumin + systemic / clinical chemistry / alkaline phosphatase (alp/alk) / alkaline phosphatase (…
[36] = systemic / clinical chemistry / cholesterol / cholesterol
[37] = systemic / clinical chemistry / alkaline phosphatase (alp/alk) / alkaline phosphatase (alp/alk) + systemic / clinical chemistry / …
[38] = systemic / in life observation / body weight / body weight + systemic / in life observation / food consumption / food consumption + systemic…
[39] = systemic / in life observation / body weight / body weight + systemic / organ weight / kidney / absolute + systemic / organ weight / liver…

With `Nc1nc(N)nc(N)n1` [Melamine] the LEL [1, 20] was 900 mg/kg/day, the NEL [1, 20] was less than 900 mg/kg/day and the LOAEL [1, 21] was greater than 2700 mg/kg/day. The NOAEL [1, 21] was no less than 2700 mg/kg/day, the LOAEL [2, 22] was greater than 900 mg/kg/day and the NOAEL [2, 22] was no less than 900 mg/kg/day. For the same compound, the LEL [2, 23] was 300 mg/kg/day, the NEL [2, 23] was less than 300 mg/kg/day and the LEL [3, 24] was 112 mg/kg/day. The NEL [3, 24] was less than 112 mg/kg/day, the LOAEL ([3]; systemic / pathology microscopic / kidney / inflammation + systemic / pathology gross / urinary bladder / stones) was 225 mg/kg/day and the LEL [4, 23] was 75 mg/kg/day. For the same compound, the LOAEL [4, 25] was greater than 600 mg/kg/day, the NEL [4, 25] was 37.5 mg/kg/day and the NOAEL [4, 25] was no less than 600 mg/kg/day. It also gave an LEL [5] of 338 mg/kg/day, an LOAEL [5] of 338 mg/kg/day and an NEL [5] of less than 338 mg/kg/day. The NOAEL [5] was less than 338 mg/kg/day, the LEL [6] was 875 mg/kg/day and the LOAEL [6] was greater than 875 mg/kg/day. The NEL [6] was 500 mg/kg/day and the NOAEL [6] was no less than 875 mg/kg/day.
Work on `CC(=O)OC1CC(C)OC(C)O1` (configuration not stated) [Dimethoxane] yielded an LEL [7, 26] of 500 mg/kg/day, an LOAEL [7, 26] of 500 mg/kg/day and an NEL [7, 26] of 250 mg/kg/day. For the same compound, the NOAEL [7, 26] was 250 mg/kg/day, the LOAEL ([7]; group: maternal, systemic / in life observation / body weight / body weight gain + systemic / in life observation / food consumption / food consumption) was 250 mg/kg/day and the LEL [7, 27] was 250 mg/kg/day. The NEL [7, 27] was 125 mg/kg/day, the NOAEL [7, 27] was 125 mg/kg/day and the LEL ([8]; systemic / pathology microscopic / stomach / acanthosis + systemic / pathology microscopic / stomach / hyperkeratosis + systemic / pathology…) was 125 mg/kg/day. It also gave an LOAEL [8, 28] greater than 250 mg/kg/day, an NOAEL [8, 28] of no less than 250 mg/kg/day and an LEL [9, 29] of 31 mg/kg/day. For the same compound, the NEL [9, 29] was less than 31 mg/kg/day, the LOAEL [9, 30] was greater than 500 mg/kg/day and the NOAEL [9, 30] was no less than 500 mg/kg/day. The LEL [10, 31] was 62 mg/kg/day, the LOAEL [10, 31] was 250 mg/kg/day and the NEL [10, 32] was 31 mg/kg/day. It also gave an NOAEL [10, 32] of 125 mg/kg/day, an LEL [11] of 300 mg/kg/day and an LOAEL [11] of 300 mg/kg/day. It also gave an NEL [11] of 100 mg/kg/day, an NOAEL [11] of 100 mg/kg/day and an LEL [12] of 500 mg/kg/day. The LOAEL [12] was 500 mg/kg/day, the NEL [12] was 250 mg/kg/day and the NOAEL [12] was 250 mg/kg/day. It also gave an LEL [13] of 125 mg/kg/day, an LOAEL [13] of 250 mg/kg/day and an NEL [13] of less than 125 mg/kg/day. For the same compound, the NOAEL [13] was 125 mg/kg/day, the LEL [14] was 250 mg/kg/day and the LOAEL [14] was 250 mg/kg/day. It also gave an NEL [14] of less than 250 mg/kg/day and an NOAEL [14] of less than 250 mg/kg/day.
Work on `CO/C=C(/C(=O)OC)c1ccccc1Oc1cc(Oc2ccccc2C#N)ncn1` [Azoxystrobin] yielded an LOAEL [15, 33] of 211 mg/kg/day, an NOAEL [15, 33] of 20.4 mg/kg/day and an LEL [15, 34] of 22.4 mg/kg/day. The NEL [15, 34] was less than 22.4 mg/kg/day, the LOAEL [16, 35] was 250 mg/kg/day and the NOAEL [16, 35] was 50 mg/kg/day. It also gave an LEL [16, 36] of 10 mg/kg/day, an NEL [16, 36] of less than 10 mg/kg/day and an LOAEL [17, 37] of 200 mg/kg/day. It also gave an NEL [17, 37] of 3 mg/kg/day, an NOAEL [17, 37] of 25 mg/kg/day and an LEL ([17]; systemic / organ weight / liver / absolute + systemic / clinical chemistry / cholesterol / cholesterol + systemic / clinical chemistry / …) of 25 mg/kg/day. The NEL ([18]; systemic / clinical chemistry / aspartate aminotransferase (ast/sgot) / aspartate aminotransferase (ast/sgot) + systemic / clinical …) was 117 mg/kg/day, the LOAEL [18, 38] was 82.4 mg/kg/day and the NOAEL [18, 38] was 18.2 mg/kg/day. It also gave an LOAEL [19, 24] of 272 mg/kg/day, an LEL [19, 39] of 272 mg/kg/day and an NEL [19, 39] of 37.5 mg/kg/day. It also gave an NOAEL [19, 39] of 37.5 mg/kg/day.
